# Laboratory results as given in ChEMBL document CHEMBL5550187, “The Development of a Highly Potent and Selective Human Toll-like Receptor 2 Agonist: Synthesis and Biological Evaluation of CaLGL-1 and Its Derivatives” (J Med Chem, 2024).
# Activity calls are given as the source filed them. The calls are words filed in the database; no cut-off is given here.
# Key:
# Format in all cases: cell-based
# [1] = target: Toll-like receptor 2 (Mus musculus) (UniProt Q9QUN7); experiment: Agonist activity at TLR2 in CSF-2/GM-CSF treated wild type C57BL/6 mouse BMDC cells assessed as increase in TNF-alpha mRNA expression at 10 uM measured after 24 hrs by qRT-PCR analysis
# Toll-like receptor 2 (Mus musculus), sequence (Q9QUN7 whole entry): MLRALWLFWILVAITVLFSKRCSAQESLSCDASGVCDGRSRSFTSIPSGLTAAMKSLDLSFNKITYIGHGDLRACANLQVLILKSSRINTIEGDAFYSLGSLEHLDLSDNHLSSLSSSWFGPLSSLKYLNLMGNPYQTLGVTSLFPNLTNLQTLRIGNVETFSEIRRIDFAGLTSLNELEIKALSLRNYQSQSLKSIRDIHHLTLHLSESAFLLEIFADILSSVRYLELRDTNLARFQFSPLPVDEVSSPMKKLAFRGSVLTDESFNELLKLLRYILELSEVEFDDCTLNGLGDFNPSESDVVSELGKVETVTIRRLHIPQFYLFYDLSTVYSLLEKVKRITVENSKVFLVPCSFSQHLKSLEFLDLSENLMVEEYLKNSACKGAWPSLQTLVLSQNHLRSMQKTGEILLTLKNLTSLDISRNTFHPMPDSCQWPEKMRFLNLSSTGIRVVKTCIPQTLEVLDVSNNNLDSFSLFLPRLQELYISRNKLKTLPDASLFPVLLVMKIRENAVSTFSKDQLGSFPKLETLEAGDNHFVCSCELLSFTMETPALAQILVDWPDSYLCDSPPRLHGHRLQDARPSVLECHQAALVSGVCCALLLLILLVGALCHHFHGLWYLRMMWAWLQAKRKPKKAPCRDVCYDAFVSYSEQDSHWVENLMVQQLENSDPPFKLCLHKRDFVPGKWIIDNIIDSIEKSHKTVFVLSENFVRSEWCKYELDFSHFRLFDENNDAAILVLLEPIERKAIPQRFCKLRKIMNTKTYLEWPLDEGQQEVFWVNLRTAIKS
# [2] = target: Toll-like receptor 2 (Mus musculus) (UniProt Q9QUN7); experiment: Agonist activity at TLR2 in CSF-2/GM-CSF treated wild type C57BL/6 mouse BMDC cells assessed as increase in TNF-alpha level at 10 uM measured after 24 hrs by ELISA
# [3] = target: T1, Toll-like receptor 2 (Homo sapiens, UniProt O60603); experiment: Agonist activity at human TLR2 transfected in HEK293T cells cotransfected with NF-kappaB promoter assessed as increase in NF-kappaB activation measured after 24 hrs by Dual-Glo luciferase assay; conditions: filed as agonist
# T1 sequence (O60603 whole entry): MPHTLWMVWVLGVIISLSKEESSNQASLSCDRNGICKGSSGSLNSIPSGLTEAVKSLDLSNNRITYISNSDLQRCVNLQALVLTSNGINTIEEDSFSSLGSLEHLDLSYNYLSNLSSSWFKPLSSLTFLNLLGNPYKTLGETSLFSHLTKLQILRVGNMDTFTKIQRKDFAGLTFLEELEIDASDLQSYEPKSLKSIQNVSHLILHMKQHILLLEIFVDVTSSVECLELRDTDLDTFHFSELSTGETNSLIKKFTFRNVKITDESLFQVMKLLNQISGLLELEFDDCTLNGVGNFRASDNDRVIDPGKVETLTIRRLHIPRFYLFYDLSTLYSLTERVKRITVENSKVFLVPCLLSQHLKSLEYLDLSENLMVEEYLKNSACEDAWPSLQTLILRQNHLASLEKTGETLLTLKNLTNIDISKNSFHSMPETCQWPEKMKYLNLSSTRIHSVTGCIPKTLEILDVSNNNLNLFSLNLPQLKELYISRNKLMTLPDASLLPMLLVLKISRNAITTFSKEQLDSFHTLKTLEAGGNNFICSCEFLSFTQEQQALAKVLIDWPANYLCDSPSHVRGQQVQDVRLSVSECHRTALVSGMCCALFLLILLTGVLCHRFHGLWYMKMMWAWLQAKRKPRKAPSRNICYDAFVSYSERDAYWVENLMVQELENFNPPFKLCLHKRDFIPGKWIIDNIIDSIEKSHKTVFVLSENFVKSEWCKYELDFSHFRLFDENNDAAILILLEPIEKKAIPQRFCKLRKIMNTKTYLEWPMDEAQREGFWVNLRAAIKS
# [4] = target: Toll-like receptor 1/2 (Homo sapiens) (UniProt O60603+Q15399); experiment: Agonist activity at human TLR1/TLR2 heterodimer transfected in HEK293T cells cotransfected with NF-kappaB promoter assessed as fold increase in NF-kappaB activation at 1 to 50 uM measured after 24 hrs by Dual-Glo luciferase assay relative to TLR2 alone; conditions: filed as agonist, dose 1-50 µM
# [5] = target: T1, Toll-like receptor 2; experiment: Agonist activity at TLR2 in PMA-differentiated human THP-1 cells assessed as increase in TNF-alpha level by ELISA
# [6] = target: TLR2/TLR6 (Homo sapiens) (UniProt O60603+Q9Y2C9); experiment: Agonist activity at human TLR2/TLR6 heterodimer transfected in HEK293T cells cotransfected with NF-kappaB promoter assessed as increase in NF-kappaB activation at 1 to 50 uM measured after 24 hrs by Dual-Glo luciferase assay; conditions: dose 1-50 µM
# [7] = target: T1, Toll-like receptor 2; experiment: Agonist activity at TLR2 in PMA-differentiated human THP-1 cells assessed as increase in TNF-alpha mRNA expression by qRT-PCR analysis
# [8] = target: T1, Toll-like receptor 2; experiment: Agonist activity at TLR2 in PMA-differentiated human THP-1 cells assessed as increase in IL-6 mRNA expression by qRT-PCR analysis
# [9] = target: T1, Toll-like receptor 2; experiment: Agonist activity at TLR2 in PMA-differentiated human THP-1 cells assessed as increase in IL-1beta mRNA expression by qRT-PCR analysis
# [10] = target: Toll-like receptor 2 (Mus musculus, UniProt Q9QUN7); experiment: Agonist activity at TLR2 in RmGM-CSF-induced wild type Black6 mouse BMDC cells lacking TLR4 assessed as increase in TNFalpha response incubated overnight by ELISA
# Toll-like receptor 2 (Mus musculus, UniProt Q9QUN7), sequence (Q9QUN7 whole entry): as the sequence (Q9QUN7 whole entry) above
Compound,Activity ([1]; filed as agonist),Activity ([2]; filed as agonist),Activity [1],Activity [2],further results
CCCCCCCCCCCCCCCCCCC[C@H]1OC[C@H]([C@@H]2O[C@@H](OC[C@H](O)COC(=O)CCCCCCCCCCC)[C@H](O)[C@H]2O)O1,–,–,inactive,inactive,–
CCCCCCCCCCCC[C@@H]1OC[C@H]([C@@H]2O[C@@H](OC[C@H](O)COC(=O)CCCCCCCCCCC)[C@H](O)[C@H]2O)O1,–,–,–,–,Activity [3]: Active; fold change (FC) [4]: 15; EC50 [5]: 0.116 nM; Activity [6]: inactive
CCCCCCCCCCCCCCCCC[C@@H]1OC[C@H]([C@@H]2O[C@@H](OC[C@H](O)COC(=O)CCCCCCCCCCC)[C@H](O)[C@H]2O)O1,–,–,inactive,inactive,–
CCCCCCCCCCCCCCCCC[C@H]1OC[C@H]([C@@H]2O[C@@H](OC[C@H](O)COC(=O)CCCCCCCCCCC)[C@H](O)[C@H]2O)O1,–,–,inactive,inactive,–
CCCCCCCCCCCCCCCCCCC[C@@H]1OC[C@H]([C@@H]2O[C@@H](OC[C@H](O)COC(=O)CCCCCCCCCCC)[C@H](O)[C@H]2O)O1,–,–,inactive,inactive,–
CCCCCCCCCCCCC[C@@H]1OC[C@H]([C@@H]2O[C@@H](OC[C@H](O)COC(=O)CCCCCCCCCCC)[C@H](O)[C@H]2O)O1,–,–,–,–,EC50 [10]: 3200 nM; Activity [7]: inactive; Activity [8]: inactive; Activity [9]: inactive

# Continued, in another order:
Activity ([1]; filed as agonist),Activity ([2]; filed as agonist),Activity [1],Activity [2],Compound,further results
Active,Active,–,–,CCCCCCCCCCCC(=O)OC[C@@H](O)CO[C@@H]1O[C@@H]([C@H]2CO[C@H](CCCCCCCCC)O2)[C@H](O)[C@H]1O,–
Active,Active,–,–,CCCCCCCCCCCC(=O)OC[C@@H](O)CO[C@@H]1O[C@@H]([C@H]2CO[C@@H](CCCCCCCCC)O2)[C@H](O)[C@H]1O,–
Active,Active,–,–,CCCCCCCCCCCC(=O)OC[C@@H](O)CO[C@@H]1O[C@@H]([C@H]2CO[C@H](CCCCCCCCCCC)O2)[C@H](O)[C@H]1O,–
Active,Active,–,–,CCCCCCCCCCCC(=O)OC[C@@H](O)CO[C@@H]1O[C@@H]([C@H]2CO[C@@H](CCCCCCCCCCC)O2)[C@H](O)[C@H]1O,Activity ([7]; filed as agonist): Active; Activity ([8]; filed as agonist): Active; Activity ([9]; filed as agonist): Active
